Data as given in ChEMBL document CHEMBL1201862, “PubChem BioAssay data set” (2004).
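96-well plates; 48 h exposure; 5 concentrations. Endpoints by linear interpolation between flanking doses. Not reached: highest tested concentration assigned. Here, GI50 denotes the concentration required for 50% inhibition of growth.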 Activity calls are given as the source filed them. Cut-off read from the data, not from the text of the source: active = GI50 up to about 1.1 µM and inactive = higher.

Assays:
Experiment in all cases: NCI anticancer screen, dose series, 48 h
EKVX = test system: EKVX
IGROV-1 = test system: IGROV-1
NCI-H23 = test system: NCI-H23
M19-MEL = test system: M19-MEL
Malme-3M = test system: Malme-3M
A549 = test system: A549
HOP-18 = test system: HOP-18
DLD-1 = test system: DLD-1
MOLT-4 = test system: MOLT-4
HOP-92 = test system: HOP-92
SK-MEL-28 = test system: SK-MEL-28
U-251 = test system: U-251
HT-29 = test system: HT-29
COLO 205 = test system: COLO 205
K562 = test system: K562
SN12C = test system: SN12C
SNB-75 = test system: SNB-75
SF-268 = test system: SF-268
CCRF-CEM = test system: CCRF-CEM
LXFL 529 = test system: LXFL 529
HCT-116 = test system: HCT-116
UO-31 = test system: UO-31
NCI-H460 = test system: NCI-H460
OVCAR-3 = test system: OVCAR-3
SK-OV-3 = test system: SK-OV-3
RXF 393 = test system: RXF 393
CAKI-1 = test system: CAKI-1
SF-539 = test system: SF-539
ACHN = test system: ACHN
SF-295 = test system: SF-295
SNB-19 = test system: SNB-19
OVCAR-5 = test system: OVCAR-5
UACC-62 = test system: UACC-62
SW-620 = test system: SW-620
SK-MEL-5 = test system: SK-MEL-5
A498 = test system: A498
OVCAR-8 = test system: OVCAR-8
XF498 = test system: XF498
UACC-257 = test system: UACC-257
DMS-273 = test system: DMS-273
LOX IMVI = test system: LOX IMVI
SK-MEL-2 = test system: SK-MEL-2
HCC 2998 = test system: HCC 2998
OVCAR-4 = test system: OVCAR-4
TK-10 = test system: TK-10
KM12 = test system: KM12
KM-20L2 = test system: KM-20L2
786-0 = test system: 786-0
HL-60 = test system: HL-60
HOP-62 = test system: HOP-62
HCT-15 = test system: HCT-15
SR = test system: SR
DMS-114 = test system: DMS-114
M14 = test system: M14
NCI-H226 = test system: NCI-H226
NCI-H522 = test system: NCI-H522
RPMI-8226 = test system: RPMI-8226
SNB-78 = test system: SNB-78

In the case of `Cc1c2c(cc3c1C(=O)C(=O)C1=C3OC[C@@H]1C)C(C)(C)CCC2`, the GI50 (EKVX) is reported as 20.9 µM (inactive), the GI50 (IGROV-1) is reported as 19.7 µM (inactive) and the GI50 (NCI-H23) is reported as 14.8 µM (inactive). For the same compound, the GI50 (M19-MEL) was 2.64 µM (inactive), the GI50 (Malme-3M) was 15.6 µM (inactive) and the GI50 (A549) was 13 µM (inactive). The GI50 (HOP-18) was 17.1 µM (inactive), the GI50 (DLD-1) was 18.7 µM (inactive) and the GI50 (MOLT-4) was 12.4 µM (inactive). The GI50 (HOP-92) was 21.3 µM (inactive), the GI50 (SK-MEL-28) was 14 µM (inactive) and the GI50 (U-251) was 16.2 µM (inactive). The GI50 (HT-29) was 16.6 µM (inactive), the GI50 (COLO 205) was 7.29 µM (inactive) and the GI50 (K562) was 14.9 µM (inactive). The GI50 (SN12C) was 16.8 µM (inactive), the GI50 (SNB-75) was 26.1 µM (inactive) and the GI50 (SF-268) was 14.1 µM (inactive). The GI50 (CCRF-CEM) was 18 µM (inactive), the GI50 (LXFL 529) was 16 µM (inactive) and the GI50 (HCT-116) was 13.8 µM (inactive). For the same compound, the GI50 (UO-31) was 18.7 µM (inactive), the GI50 (NCI-H460) was 13.7 µM (inactive) and the GI50 (OVCAR-3) was 13.9 µM (inactive). The GI50 (SK-OV-3) was 41.9 µM (inactive), the GI50 (RXF 393) was 17.9 µM (inactive) and the GI50 (CAKI-1) was 19.3 µM (inactive). For the same compound, the GI50 (SF-539) was 16.3 µM (inactive), the GI50 (ACHN) was 16 µM (inactive) and the GI50 (SF-295) was 14.5 µM (inactive). The GI50 (SNB-19) was 22.1 µM (inactive), the GI50 (OVCAR-5) was 21.5 µM (inactive) and the GI50 (UACC-62) was 13.2 µM (inactive). The GI50 (SW-620) was 15.1 µM (inactive), the GI50 (SK-MEL-5) was 13.3 µM (inactive) and the GI50 (A498) was 22.3 µM (inactive). For the same compound, the GI50 (OVCAR-8) was 18.2 µM (inactive), the GI50 (XF498) was 29.9 µM (inactive) and the GI50 (UACC-257) was 15.1 µM (inactive). The GI50 (DMS-273) was 14.4 µM (inactive), the GI50 (LOX IMVI) was 7.43 µM (inactive) and the GI50 (SK-MEL-2) was 6.15 µM (inactive). For the same compound, the GI50 (HCC 2998) was 20.4 µM (inactive), the GI50 (OVCAR-4) was 17.9 µM (inactive) and the GI50 (TK-10) was 26.5 µM (inactive). For the same compound, the GI50 (KM12) was 11.9 µM (inactive), the GI50 (KM-20L2) was 19.5 µM (inactive) and the GI50 (786-0) was 23.4 µM (inactive). For the same compound, the GI50 (HL-60) was 10.3 µM (inactive), the GI50 (HOP-62) was 21.5 µM (inactive) and the GI50 (HCT-15) was 14.2 µM. The GI50 (SR) was 11.6 µM (inactive), the GI50 (DMS-114) was 16.8 µM (inactive) and the GI50 (M14) was 13.9 µM (inactive).
In the case of `ClCCNCCNCCCl.ClCCNCCNCCCl.[O-][Cl+3]([O-])([O-])O`, the GI50 (EKVX) is reported as > 100 µM (inactive), the GI50 (IGROV-1) is reported as 22.5 µM (inactive) and the GI50 (NCI-H23) is reported as 27.9 µM (inactive). For the same compound, the GI50 (M19-MEL) was 27.2 µM (inactive), the GI50 (Malme-3M) was 19.5 µM (inactive) and the GI50 (A549) was 73.5 µM (inactive). For the same compound, the GI50 (HOP-18) was 24.3 µM (inactive), the GI50 (DLD-1) was 18.5 µM (inactive) and the GI50 (MOLT-4) was 31.4 µM (inactive). The GI50 (HOP-92) was 39.7 µM (inactive), the GI50 (SK-MEL-28) was 46.2 µM (inactive) and the GI50 (U-251) was 25.4 µM (inactive). The GI50 (HT-29) was > 100 µM (inactive), the GI50 (COLO 205) was 40.7 µM (inactive) and the GI50 (K562) was 23.6 µM (inactive). For the same compound, the GI50 (SN12C) was 61.2 µM (inactive), the GI50 (SNB-75) was 19 µM (inactive) and the GI50 (SF-268) was 25.5 µM (inactive). The GI50 (CCRF-CEM) was 29.5 µM (inactive), the GI50 (LXFL 529) was 17.2 µM (inactive) and the GI50 (HCT-116) was 27.5 µM (inactive). For the same compound, the GI50 (UO-31) was 26.8 µM (inactive), the GI50 (NCI-H226) was > 100 µM (inactive) and the GI50 (NCI-H460) was 22.3 µM (inactive). The GI50 (OVCAR-3) was 17.6 µM (inactive), the GI50 (SK-OV-3) was > 100 µM (inactive) and the GI50 (RXF 393) was 40.7 µM (inactive). For the same compound, the GI50 (CAKI-1) was 19.1 µM (inactive), the GI50 (SF-539) was 26.2 µM (inactive) and the GI50 (ACHN) was 21.9 µM (inactive). For the same compound, the GI50 (SF-295) was 54.6 µM (inactive), the GI50 (SNB-19) was > 100 µM (inactive) and the GI50 (OVCAR-5) was 24.9 µM (inactive). For the same compound, the GI50 (UACC-62) was 26.9 µM (inactive), the GI50 (SW-620) was 21 µM (inactive) and the GI50 (SK-MEL-5) was 23 µM (inactive). For the same compound, the GI50 (A498) was 57.1 µM (inactive), the GI50 (NCI-H522) was 11.4 µM (inactive) and the GI50 (OVCAR-8) was 18.9 µM (inactive). For the same compound, the GI50 (RPMI-8226) was 33.3 µM (inactive), the GI50 (UACC-257) was 27 µM (inactive) and the GI50 (DMS-273) was 27.5 µM (inactive). For the same compound, the GI50 (LOX IMVI) was 20 µM (inactive), the GI50 (SK-MEL-2) was 21.4 µM (inactive) and the GI50 (HCC 2998) was > 100 µM (inactive). The GI50 (OVCAR-4) was 22.3 µM (inactive), the GI50 (TK-10) was 49.9 µM (inactive) and the GI50 (KM12) was > 100 µM (inactive). For the same compound, the GI50 (KM-20L2) was 67.3 µM (inactive), the GI50 (786-0) was 18.8 µM (inactive) and the GI50 (HL-60) was 30.3 µM (inactive). The GI50 (HOP-62) was > 100 µM (inactive), the GI50 (HCT-15) was 55.8 µM and the GI50 (SR) was 23.1 µM (inactive). For the same compound, the GI50 (SNB-78) was 44.6 µM (inactive), the GI50 (DMS-114) was 23.9 µM (inactive) and the GI50 (M14) was 19.5 µM (inactive).
